From ChEMBL document CHEMBL5537193, “Multitargeting HDAC Inhibitors Containing a RAS/RAF Protein Interfering Unit” (J Med Chem, 2024)
Active and inactive are the calls of the source. The rule behind the calls is not given here.

How the values were obtained:
PANC-1 [1] = experiment: Induction of apoptosis in human PANC-1 cells assessed as increase in cleaved PARP expression level at 2 uM incubated for 24 hrs by Western blot analysis; type: functional, cell-based
Histone deacetylase 2 = Histone deacetylase 2 (Homo sapiens, UniProt Q92769); experiment: Inhibition of HDAC2 (unknown origin)
Sequence of Histone deacetylase 2 (Q92769 whole entry): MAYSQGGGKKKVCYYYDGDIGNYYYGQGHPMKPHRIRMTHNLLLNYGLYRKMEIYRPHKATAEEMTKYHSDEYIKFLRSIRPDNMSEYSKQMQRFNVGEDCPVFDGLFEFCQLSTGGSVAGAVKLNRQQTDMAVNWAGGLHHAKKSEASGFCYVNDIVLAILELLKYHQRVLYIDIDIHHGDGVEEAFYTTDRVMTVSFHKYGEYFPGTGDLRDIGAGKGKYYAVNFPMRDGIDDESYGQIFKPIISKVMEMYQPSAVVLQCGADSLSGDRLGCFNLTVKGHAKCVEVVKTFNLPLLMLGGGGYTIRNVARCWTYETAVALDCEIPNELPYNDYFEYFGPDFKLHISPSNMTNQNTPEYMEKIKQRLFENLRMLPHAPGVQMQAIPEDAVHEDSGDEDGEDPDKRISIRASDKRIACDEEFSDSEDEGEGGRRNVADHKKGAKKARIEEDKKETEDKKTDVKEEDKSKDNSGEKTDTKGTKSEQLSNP

[2] = biological target: Protein deacetylase HDAC6 (Homo sapiens, UniProt Q9UBN7); experiment: Inhibition of HDAC6 (unknown origin)
L02 = experiment: cells; settings: Homo sapiens, L02, 72 h
Description: Cytotoxicity against human L02 cells assessed as inhibition of cell growth incubated for 72 hrs by MTT assay

Histone deacetylase 7 = Histone deacetylase 7 (Homo sapiens, UniProt Q8WUI4); experiment: Inhibition of HDAC7 (unknown origin)
Sequence of Histone deacetylase 7 (Q8WUI4 whole entry): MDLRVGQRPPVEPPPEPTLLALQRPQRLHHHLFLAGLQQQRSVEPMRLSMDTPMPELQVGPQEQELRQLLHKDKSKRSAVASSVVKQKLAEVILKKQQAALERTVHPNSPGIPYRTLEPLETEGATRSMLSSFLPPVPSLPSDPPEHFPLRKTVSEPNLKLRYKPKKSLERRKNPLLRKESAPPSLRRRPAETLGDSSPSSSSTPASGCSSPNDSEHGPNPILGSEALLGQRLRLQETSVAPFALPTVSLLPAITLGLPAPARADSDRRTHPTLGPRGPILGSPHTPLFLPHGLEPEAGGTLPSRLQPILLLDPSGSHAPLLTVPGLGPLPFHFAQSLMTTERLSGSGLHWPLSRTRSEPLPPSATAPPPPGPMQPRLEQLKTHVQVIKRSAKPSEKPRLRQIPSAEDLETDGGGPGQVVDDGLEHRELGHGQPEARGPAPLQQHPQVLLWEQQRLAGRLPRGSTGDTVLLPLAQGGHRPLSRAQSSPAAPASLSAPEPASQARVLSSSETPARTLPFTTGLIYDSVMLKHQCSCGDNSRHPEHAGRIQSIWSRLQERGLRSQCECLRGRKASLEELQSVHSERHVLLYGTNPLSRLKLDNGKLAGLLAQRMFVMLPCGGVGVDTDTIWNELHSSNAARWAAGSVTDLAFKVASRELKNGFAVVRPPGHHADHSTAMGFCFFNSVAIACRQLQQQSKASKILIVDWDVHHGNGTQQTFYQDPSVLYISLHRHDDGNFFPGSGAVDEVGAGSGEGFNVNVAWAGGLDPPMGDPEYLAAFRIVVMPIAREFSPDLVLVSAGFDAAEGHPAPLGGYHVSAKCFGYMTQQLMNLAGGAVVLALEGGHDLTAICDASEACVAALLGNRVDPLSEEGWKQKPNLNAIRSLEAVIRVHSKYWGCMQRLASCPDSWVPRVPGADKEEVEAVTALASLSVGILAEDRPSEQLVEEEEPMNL

Histone deacetylase 3 = Histone deacetylase 3 (Homo sapiens, UniProt O15379); experiment: Inhibition of HDAC3 (unknown origin)
Sequence of Histone deacetylase 3 (O15379 whole entry): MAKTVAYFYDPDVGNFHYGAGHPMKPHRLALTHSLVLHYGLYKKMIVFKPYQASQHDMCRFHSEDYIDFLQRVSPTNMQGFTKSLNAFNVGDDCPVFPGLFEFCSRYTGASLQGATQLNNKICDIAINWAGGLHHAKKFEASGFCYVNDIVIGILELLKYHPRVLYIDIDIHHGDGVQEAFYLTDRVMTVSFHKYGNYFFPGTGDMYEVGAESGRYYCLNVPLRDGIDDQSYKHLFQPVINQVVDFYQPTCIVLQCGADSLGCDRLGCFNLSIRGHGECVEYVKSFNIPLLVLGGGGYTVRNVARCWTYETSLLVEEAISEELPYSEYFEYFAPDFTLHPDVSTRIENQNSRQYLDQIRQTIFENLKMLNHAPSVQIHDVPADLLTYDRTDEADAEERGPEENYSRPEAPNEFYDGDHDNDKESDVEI

Histone deacetylase 8 = Histone deacetylase 8 (Homo sapiens, UniProt Q9BY41); experiment: Inhibition of HDAC8 (unknown origin)
Sequence of Histone deacetylase 8 (Q9BY41 whole entry): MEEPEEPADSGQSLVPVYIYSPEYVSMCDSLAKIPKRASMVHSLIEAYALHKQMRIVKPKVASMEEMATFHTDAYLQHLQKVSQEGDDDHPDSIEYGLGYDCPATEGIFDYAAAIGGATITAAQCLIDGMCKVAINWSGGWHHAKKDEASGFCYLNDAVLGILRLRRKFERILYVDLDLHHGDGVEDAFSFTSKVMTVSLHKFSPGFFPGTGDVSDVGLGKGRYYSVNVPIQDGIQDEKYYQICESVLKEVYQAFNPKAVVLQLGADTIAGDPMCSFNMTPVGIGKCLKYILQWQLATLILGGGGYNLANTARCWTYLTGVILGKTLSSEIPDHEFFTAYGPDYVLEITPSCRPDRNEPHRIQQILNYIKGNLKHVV

PANC-1 [3] = experiment: Induction of apoptosis in human PANC-1 cells assessed as increase in Cytochrome C expression level at 2 uM incubated for 24 hrs by Western blot analysis; type: functional, cell-based
HepG2 = experiment: cells; settings: Homo sapiens, HepG2, 72 h
Description: Cytotoxicity against human HepG2 cells assessed as inhibition of cell growth incubated for 72 hrs by MTT assay

HT-29 [4] = experiment: Antitumor activity against human HT-29 cells xenografted in BALB/c nude mouse assessed as tumor growth inhibition at 7.5 mg/kg, ip administered once a day for 24 days in presence of SAHA relative to control; type: functional; settings: HT-29, 576 h, time 24 day, read-out: TGI
HT-29 [5] = experiment: cells; settings: Homo sapiens, HT-29, 72 h
Description: Cytotoxicity against human HT-29 cells assessed as inhibition of cell growth incubated for 72 hrs by MTT assay

PANC-1 [6] = experiment: Induction of apoptosis in human PANC-1 cells assessed as apoptotic cells at 2 uM incubated for 24 hrs by flow cytometric analysis relative to control; type: functional
PANC-1 [7] = experiment: Induction of apoptosis in human PANC-1 cells assessed as increase in cleaved caspase-9 expression level at 2 uM incubated for 24 hrs by Western blot analysis; type: functional, cell-based
MCF7 = experiment: cells; settings: Homo sapiens, MCF7, 72 h
Description: Cytotoxicity against human MCF7 cells assessed as inhibition of cell growth incubated for 72 hrs by MTT assay

SGC-7901 = experiment: cells; settings: Homo sapiens, SGC-7901, 72 h
Description: Cytotoxicity against human SGC-7901 cells assessed as inhibition of cell growth incubated for 72 hrs by MTT assay

Histone deacetylase 9 = Histone deacetylase 9 (Homo sapiens, UniProt Q9UKV0); experiment: Inhibition of HDAC9 (unknown origin)
Sequence of Histone deacetylase 9 (Q9UKV0 whole entry): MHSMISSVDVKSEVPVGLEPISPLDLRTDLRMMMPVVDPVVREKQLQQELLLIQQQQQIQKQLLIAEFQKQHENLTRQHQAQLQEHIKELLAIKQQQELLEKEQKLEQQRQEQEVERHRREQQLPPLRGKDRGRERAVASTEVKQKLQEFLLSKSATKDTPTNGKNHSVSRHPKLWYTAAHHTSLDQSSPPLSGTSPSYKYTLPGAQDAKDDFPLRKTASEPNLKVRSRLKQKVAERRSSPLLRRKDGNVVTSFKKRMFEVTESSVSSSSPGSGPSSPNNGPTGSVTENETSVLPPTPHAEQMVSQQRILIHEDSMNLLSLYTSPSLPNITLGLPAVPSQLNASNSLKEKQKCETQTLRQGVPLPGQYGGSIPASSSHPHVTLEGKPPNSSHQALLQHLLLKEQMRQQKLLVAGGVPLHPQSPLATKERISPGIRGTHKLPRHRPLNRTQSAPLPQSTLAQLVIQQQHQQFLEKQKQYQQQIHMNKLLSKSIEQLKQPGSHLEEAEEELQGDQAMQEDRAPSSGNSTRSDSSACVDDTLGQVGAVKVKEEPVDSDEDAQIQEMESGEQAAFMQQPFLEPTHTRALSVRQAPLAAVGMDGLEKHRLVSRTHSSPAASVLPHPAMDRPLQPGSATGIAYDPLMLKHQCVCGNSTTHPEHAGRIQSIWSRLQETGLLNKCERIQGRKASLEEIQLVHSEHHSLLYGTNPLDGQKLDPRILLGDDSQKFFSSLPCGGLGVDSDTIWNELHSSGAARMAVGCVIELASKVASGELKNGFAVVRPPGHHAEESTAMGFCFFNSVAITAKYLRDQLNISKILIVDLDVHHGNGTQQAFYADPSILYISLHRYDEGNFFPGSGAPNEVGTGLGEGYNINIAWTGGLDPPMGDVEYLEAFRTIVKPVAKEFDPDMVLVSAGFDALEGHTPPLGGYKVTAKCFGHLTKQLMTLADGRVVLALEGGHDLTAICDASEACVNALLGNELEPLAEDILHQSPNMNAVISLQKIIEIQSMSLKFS

[8] = biological target: Polyamine deacetylase HDAC10 (Homo sapiens, UniProt Q969S8); experiment: Inhibition of HDAC10 (unknown origin)
NCI-H1975 = experiment: cells; settings: Homo sapiens, NCI-H1975, 72 h
Description: Cytotoxicity against human NCI-H1975 cells assessed as inhibition of cell growth incubated for 72 hrs by MTT assay

A-431 = experiment: cells; settings: Homo sapiens, A-431, 72 h
Description: Cytotoxicity against human A-431 cells assessed as inhibition of cell growth incubated for 72 hrs by MTT assay

A549 = experiment: cells; settings: Homo sapiens, A549, 72 h
Description: Cytotoxicity against human A549 cells assessed as inhibition of cell growth incubated for 72 hrs by MTT assay

PANC-1 [9] = experiment: Induction of apoptosis in human PANC-1 cells assessed as increase in cleaved caspase-3 expression level at 2 uM incubated for 24 hrs by Western blot analysis; type: functional, cell-based
PANC-1 [10] = experiment: Cell cycle arrest in human PANC-1 cells assessed as accumulation of cells at GO-G1 phase at 2 uM incubated for 24 hrs by PI/RNase staining based flow cytometric analysis; type: functional
HT-29 [11] = experiment: Induction of apoptosis in human HT-29 cells assessed as apoptotic ratio at 2 uM incubated for 24 hrs by flow cytometric analysis; type: functional
Histone deacetylase 5 = Histone deacetylase 5 (Homo sapiens, UniProt Q9UQL6); experiment: Inhibition of HDAC5 (unknown origin)
MV4-11 = experiment: cells; settings: Homo sapiens, MV4-11, 72 h
Description: Cytotoxicity against human MV4-11 cells assessed as inhibition of cell growth incubated for 72 hrs by MTT assay

Histone deacetylase 1 = Histone deacetylase 1 (Homo sapiens, UniProt Q13547); experiment: Inhibition of HDAC1 (unknown origin)
K562 = experiment: cells; settings: Homo sapiens, K562, 72 h
Description: Cytotoxicity against human K562 cells assessed as inhibition of cell growth incubated for 72 hrs by MTT assay

HT-29 [12] = experiment: Antitumor activity against human HT-29 cells xenografted in BALB/c nude mouse assessed as tumor growth inhibition at 7.5 mg/kg, ip administered once a day for 24 days relative to control; type: functional; settings: HT-29, 576 h, time 24 day, read-out: TGI
PANC-1 [13] = experiment: Induction of apoptosis in human PANC-1 cells assessed as increase in Bax expression at 2 uM incubated for 24 hrs by Western blot analysis; type: functional, cell-based
Histone deacetylase 4 = Histone deacetylase 4 (Homo sapiens, UniProt P56524); experiment: Inhibition of HDAC4 (unknown origin)
Sequence of Histone deacetylase 4 (P56524 whole entry): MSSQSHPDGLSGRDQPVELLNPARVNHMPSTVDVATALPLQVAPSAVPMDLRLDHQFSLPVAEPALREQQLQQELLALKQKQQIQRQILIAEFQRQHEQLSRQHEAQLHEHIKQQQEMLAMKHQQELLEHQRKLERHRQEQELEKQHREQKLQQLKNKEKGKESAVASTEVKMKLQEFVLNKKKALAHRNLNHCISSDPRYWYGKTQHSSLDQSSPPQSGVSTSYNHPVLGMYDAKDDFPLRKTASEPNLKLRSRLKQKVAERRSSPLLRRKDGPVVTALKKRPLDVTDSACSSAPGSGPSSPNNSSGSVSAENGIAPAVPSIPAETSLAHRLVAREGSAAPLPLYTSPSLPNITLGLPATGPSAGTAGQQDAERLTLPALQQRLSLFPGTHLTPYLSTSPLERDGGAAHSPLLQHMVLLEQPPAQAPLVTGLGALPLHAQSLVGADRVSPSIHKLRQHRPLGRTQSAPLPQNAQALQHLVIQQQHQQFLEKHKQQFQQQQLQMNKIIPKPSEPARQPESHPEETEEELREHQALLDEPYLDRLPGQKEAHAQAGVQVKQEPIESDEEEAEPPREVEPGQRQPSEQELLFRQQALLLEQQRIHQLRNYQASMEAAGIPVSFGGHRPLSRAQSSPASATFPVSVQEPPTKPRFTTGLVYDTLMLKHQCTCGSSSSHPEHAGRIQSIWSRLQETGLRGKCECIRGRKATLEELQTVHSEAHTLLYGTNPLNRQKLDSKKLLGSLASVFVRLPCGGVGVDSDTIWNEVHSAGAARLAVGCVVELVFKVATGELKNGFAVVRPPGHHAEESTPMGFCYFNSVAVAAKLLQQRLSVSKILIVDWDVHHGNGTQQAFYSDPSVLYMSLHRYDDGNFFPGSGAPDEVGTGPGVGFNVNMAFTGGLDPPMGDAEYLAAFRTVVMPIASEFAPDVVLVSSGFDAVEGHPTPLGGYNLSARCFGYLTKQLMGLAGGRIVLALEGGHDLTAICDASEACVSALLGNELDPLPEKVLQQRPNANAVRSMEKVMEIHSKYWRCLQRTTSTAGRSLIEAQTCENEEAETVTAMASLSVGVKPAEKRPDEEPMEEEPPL

PANC-1 [14] = experiment: cells; settings: Homo sapiens, PANC-1, 72 h
Description: Cytotoxicity against human PANC-1 cells assessed as inhibition of cell growth incubated for 72 hrs by MTT assay

Histone deacetylase 11 = Histone deacetylase 11 (Homo sapiens, UniProt Q96DB2); experiment: Inhibition of HDAC11 (unknown origin)
[15] = Metabolic stability in mouse liver microsomes assessed as half-life at 1 uM measured upto 40 mins by LC-MS/MS analysis; type: ADME, Microsome
PANC-1 [16] = experiment: Induction of apoptosis in human PANC-1 cells incubated for 24 hrs by flow cytometric analysis; type: functional, cell-based; settings: dose 1-4 µM
HT-29 [17] = experiment: Effect on MEK protein expression in human HT-29 cells at 2 uM incubated for 24 hrs by Western blot analysis; type: functional, cell-based
HT-29 [18] = experiment: Induction of apoptosis in human HT-29 cells incubated for 24 hrs by flow cytometric analysis; type: functional, cell-based; settings: dose 1-4 µM
[19] = biological target: Serine/threonine-protein kinase PLK1 (Homo sapiens, UniProt P53350); experiment: Inhibition of PLK1 (unknown origin)
Sequence of Serine/threonine-protein kinase PLK1 (P53350 whole entry): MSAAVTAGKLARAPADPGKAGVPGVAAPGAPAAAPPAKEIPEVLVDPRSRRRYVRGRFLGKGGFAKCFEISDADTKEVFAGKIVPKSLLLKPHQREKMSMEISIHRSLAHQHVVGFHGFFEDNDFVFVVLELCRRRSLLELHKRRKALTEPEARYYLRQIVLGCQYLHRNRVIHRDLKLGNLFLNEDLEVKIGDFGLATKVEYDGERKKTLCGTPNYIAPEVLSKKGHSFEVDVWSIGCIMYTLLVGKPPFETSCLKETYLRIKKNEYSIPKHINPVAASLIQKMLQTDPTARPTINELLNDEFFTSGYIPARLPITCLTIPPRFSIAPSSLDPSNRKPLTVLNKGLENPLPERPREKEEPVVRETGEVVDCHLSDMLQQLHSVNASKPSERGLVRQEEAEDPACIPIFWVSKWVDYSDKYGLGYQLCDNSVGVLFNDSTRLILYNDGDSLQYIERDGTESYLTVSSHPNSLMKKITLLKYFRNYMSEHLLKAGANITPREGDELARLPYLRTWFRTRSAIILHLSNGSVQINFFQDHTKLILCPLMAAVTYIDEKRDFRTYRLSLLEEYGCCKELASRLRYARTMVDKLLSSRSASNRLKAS

HT-29 [20] = experiment: Effect on ERK1/2 protein expression in human HT-29 cells at 2 uM incubated for 24 hrs by Western blot analysis; type: functional, cell-based
HT-29 [21] = experiment: Effect on Histone H3 expression in human HT-29 cells at 2 uM incubated for 24 hrs by Western blot analysis; type: functional, cell-based
PANC-1 [22] = experiment: Effect on RAS protein expression in human PANC-1 cells at 2 uM incubated for 24 hrs by Western blot analysis; type: functional, cell-based
PANC-1 [23] = experiment: Effect on MEK protein expression in human PANC-1 cells at 2 uM incubated for 24 hrs by Western blot analysis; type: functional, cell-based
PANC-1 [24] = experiment: Cell cycle arrest in human PANC-1 cells assessed as accumulation of cells at G2-M phase at 2 uM incubated for 24 hrs by PI/RNase staining based flow cytometric analysis; type: functional
[25] = Metabolic stability in mouse liver microsomes assessed as intrinsic clearance at 1 uM measured upto 40 mins by LC-MS/MS analysis; type: ADME, Microsome; settings: read-out: CLH
HT-29 [26] = experiment: Effect on alpha-tubulin expression in human HT-29 cells at 2 uM incubated for 24 hrs by Western blot analysis; type: functional, cell-based
[27] = Metabolic stability in human liver microsomes assessed as half-life at 1 uM measured upto 40 mins by LC-MS/MS analysis; type: ADME, Microsome
PANC-1 [28] = experiment: Inhibition of MAPK signaling pathway in human PANC-1 cells assessed as inhibition of MEK phosphorylation at 2 uM incubated for 24 hrs by Western blot analysis; type: cell-based
[29] = Metabolic stability in rat liver microsomes assessed as half-life at 1 uM measured upto 40 mins by LC-MS/MS analysis; type: ADME, Microsome
PANC-1 [30] = experiment: Effect on Histone H3 expression in human PANC-1 cells at 2 uM incubated for 24 hrs by Western blot analysis; type: functional, cell-based
PANC-1 [31] = experiment: Effect on alpha-tubulin expression in human PANC-1 cells at 2 uM incubated for 24 hrs by Western blot analysis; type: functional, cell-based
PANC-1 [32] = experiment: Inhibition of MAPK signaling pathway in human PANC-1 cells assessed as inhibition of C-RAF phosphorylation at Ser338 residue at 2 uM incubated for 24 hrs by Western blot analysis; type: cell-based
HT-29 [33] = experiment: Effect on RAS protein expression in human HT-29 cells at 2 uM incubated for 24 hrs by Western blot analysis; type: functional, cell-based
PANC-1 [34] = experiment: Inhibition of MAPK signaling pathway in human PANC-1 cells assessed as inhibition of ERK1/2 phosphorylation at 2 uM incubated for 24 hrs by Western blot analysis; type: cell-based
HT-29 [35] = experiment: Cell cycle arrest in human HT-29 cells assessed as accumulation of cells at G2-M phase at 2 uM incubated for 24 hrs by PI/RNase staining based flow cytometric analysis; type: functional
HT-29 [36] = experiment: Inhibition of MAPK signaling pathway in human HT-29 cells assessed as inhibition of MEK phosphorylation at 2 uM incubated for 24 hrs by Western blot analysis; type: cell-based
HT-29 [37] = experiment: Inhibition of MAPK signaling pathway in human HT-29 cells assessed as inhibition of C-RAF phosphorylation at Ser338 residue at 2 uM incubated for 24 hrs by Western blot analysis; type: cell-based
[38] = Metabolic stability in human liver microsomes assessed as intrinsic clearance at 1 uM measured upto 40 mins by LC-MS/MS analysis; type: ADME, Microsome; settings: read-out: CLH
PANC-1 [39] = experiment: Effect on ERK1/2 protein expression in human PANC-1 cells at 2 uM incubated for 24 hrs by Western blot analysis; type: functional, cell-based
[40] = Metabolic stability in rat liver microsomes assessed as intrinsic clearance at 1 uM measured upto 40 mins by LC-MS/MS analysis; type: ADME, Microsome; settings: read-out: CLH
HT-29 [41] = experiment: Inhibition of MAPK signaling pathway in human HT-29 cells assessed as inhibition of ERK1/2 phosphorylation at 2 uM incubated for 24 hrs by Western blot analysis; type: cell-based
[42] = Metabolic stability in human liver microsomes assessed as intrinsic clearance measured upto 40 mins by LC-MS/MS analysis; type: ADME, Microsome; settings: read-out: CLH
[43] = Metabolic stability in rat liver microsomes assessed as half-life measured upto 40 mins by LC-MS/MS analysis; type: ADME, Microsome
[44] = Metabolic stability in human liver microsomes assessed as half-life measured upto 40 mins by LC-MS/MS analysis; type: ADME, Microsome
[45] = Metabolic stability in mouse liver microsomes assessed as intrinsic clearance measured upto 40 mins by LC-MS/MS analysis; type: ADME, Microsome; settings: read-out: CLH
[46] = Metabolic stability in rat liver microsomes assessed as intrinsic clearance measured upto 40 mins by LC-MS/MS analysis; type: ADME, Microsome; settings: read-out: CLH
[47] = Metabolic stability in mouse liver microsomes assessed as half-life measured upto 40 mins by LC-MS/MS analysis; type: ADME, Microsome

## COc1cc(OC)c(/C=C/S(=O)(=O)Cc2ccc(OC)c(NCC(=O)O)c2)c(OC)c1 [RIGOSERTIB]
PANC-1 [1]
  Activity: Active
Histone deacetylase 2
  IC50: > 10000 nM
[2]
  IC50: > 10000 nM
L02
  IC50: > 40000 nM
Histone deacetylase 7
  IC50: > 10000 nM
Histone deacetylase 3
  IC50: > 10000 nM
Histone deacetylase 8
  IC50: > 10000 nM
PANC-1 [3]
  Activity: Active
HepG2
  IC50: 1340 nM
HT-29 [4]
  inhibition in vivo at 7.5 mg/kg: 77.9%
HT-29 [5]
  IC50: 160 nM
PANC-1 [6]
  Activity: 41.4%
PANC-1 [7]
  Activity: Active
MCF7
  IC50: 260 nM
SGC-7901
  IC50: 250 nM
Histone deacetylase 9
  IC50: > 10000 nM
[8]
  IC50: > 10000 nM
NCI-H1975
  IC50: 230 nM
A-431
  IC50: 360 nM
A549
  IC50: 370 nM
PANC-1 [9]
  Activity: Active
PANC-1 [10]
  Activity: Active
HT-29 [11]
  Activity: 34.8%
Histone deacetylase 5
  IC50: > 10000 nM
MV4-11
  IC50: 1150 nM
Histone deacetylase 1
  IC50: > 10000 nM
K562
  IC50: 150 nM
HT-29 [12]
  inhibition in vivo at 7.5 mg/kg: 46%
PANC-1 [13]
  Activity: Active
Histone deacetylase 4
  IC50: > 10000 nM
PANC-1 [14]
  IC50: 260 nM
Histone deacetylase 11
  IC50: > 10000 nM

## COc1cc(OC)c(/C=C/S(=O)(=O)Cc2ccc(OC)c(NC(=O)CCC(=O)NO)c2)c(OC)c1
PANC-1 [1]
  Activity: Active
L02
  IC50: > 40000 nM
[15]
  half-life at 1 µM: 14.4 min
PANC-1 [16]
  Activity: Dose-Dependent Effect
HT-29 [17]
  Activity: inactive
HT-29 [18]
  Activity: Dose-Dependent Effect
[19]
  IC50: 20.5 nM
  inhibition: Dose-Dependent Effect
PANC-1 [3]
  Activity: Active
HepG2
  IC50: 1680 nM
HT-29 [20]
  Activity: inactive
HT-29 [5]
  IC50: 120 nM
PANC-1 [6]
  Activity: 55.1%
PANC-1 [7]
  Activity: Active
HT-29 [21]
  Activity: inactive
PANC-1 [22]
  Activity: inactive
PANC-1 [23]
  Activity: inactive
PANC-1 [24]
  Activity: Active
MCF7
  IC50: 240 nM
[25]
  CLint scaled at 1 µM: 379 mL/min/kg
SGC-7901
  IC50: 260 nM
HT-29 [26]
  Activity: inactive
[27]
  half-life at 1 µM: 48 min
Histone deacetylase 9
  IC50: 91.3 nM
NCI-H1975
  IC50: 80 nM
PANC-1 [28]
  inhibition: Active
A-431
  IC50: 330 nM
A549
  IC50: 210 nM
PANC-1 [9]
  Activity: Active
HT-29 [11]
  Activity: 46.2%
[29]
  half-life at 1 µM: 35.4 min
PANC-1 [30]
  Activity: inactive
PANC-1 [31]
  Activity: inactive
PANC-1 [32]
  inhibition: Active
HT-29 [33]
  Activity: inactive
PANC-1 [34]
  inhibition: Active
HT-29 [35]
  Activity: Active
HT-29 [36]
  inhibition: Active
MV4-11
  IC50: 150 nM
K562
  IC50: 20 nM
HT-29 [37]
  inhibition: Active
[38]
  CLint scaled at 1 µM: 36.2 mL/min/kg
PANC-1 [39]
  Activity: inactive
PANC-1 [13]
  Activity: Active
Histone deacetylase 4
  IC50: 84.1 nM
[40]
  CLint scaled at 1 µM: 70.2 mL/min/kg
PANC-1 [14]
  IC50: 110 nM
HT-29 [41]
  inhibition: Active

## O=C(c1ccc(F)cc1)C1CCN(CCn2c(=O)[nH]c3ccccc3c2=O)CC1 [KETANSERIN]
[42]
  CLint scaled: 47.5 mL/min/kg
[43]
  half-life: 17.6 min
[44]
  half-life: 36.6 min
[45]
  CLint scaled: 265 mL/min/kg
[46]
  CLint scaled: 141 mL/min/kg
[47]
  half-life: 20.6 min
